Data from patent publication US20080082038A1, “Medical Device including a Bioactive in a Non-ionic and an Ionic Form and Methods of Preparation Thereof” (Vance Products Incorporated, d/b/a/ Cook Urological …, priority 2006, published 2008).
Counter-ions that a name gives are not always drawn. Like-named read-outs stand apart in the source and are kept apart here.

Experiments:
[1] = Solubility of bupivacaine free-base and salt in water and ethanol; format: physicochemical
Protocol: In water, the free-base (unionized form) of bupivacaine is much less soluble in water than the salt form (bupivacaine-HCl). A water suspension of free-base in water has a pH of 7.85. […] By lowering the pH, the ratio of protonated bupivacaine (ionized) to unprotonated bupivacaine (unionized) increases.
(§1) Stents, prepared as described in Example 1, are imbibed in 5% bupivacaine-HCl in water/ethanol for 20 minutes at 45° C.

[2] = Elution of deposited drug from imbibed stents in buffered saline solution (HPLC); format: physicochemical; conditions: for rate of elution of drug from imbibed polyurethane stent: polyurethane stent imbibed with the named form
Protocol: as §1
The amount of drug deposited on the stent is determined by high performance liquid chromatography (HPLC). The rate of bupivacaine dissolution is determined by measuring the elution profiles using HPLC.
The solubility and thus the ratio of bupivacaine to bupivacaine-HCl was determined by the elution of the deposited drug in buffered saline solution (pH=7.4) mimicking a bodily fluid.

[3] = buffered saline solution pH=7.4

CCCCN1CCCCC1C(=O)Nc1c(C)cccc1C (stereo not shown) [bupivacaine-HCl]
solubility ([1]; aqueous buffer, water, pH between 1.8 and 6, read-out: solubility (dissolved in water)): 40 to 50 mg/mL | solubility ([1]; ethanol, organic solvent or mixture, read-out: solubility in ethanol): 125 mg/mL | solubility ([1]; water, read-out: solubility in water): 40 mg/mL | rate of elution of drug from imbibed polyurethane stent [2]: can elute more quickly

CCCCN1CCCCC1C(=O)Nc1c(C)cccc1C (stereo not shown) [bupivacaine]
solubility in aqueous solution relative to the bupivacaine-salt ([1]; aqueous solution): at least two orders of magnitude less soluble | pH of water suspension of free-base ([1]; suspension in water): 7.85 | solubility ([1]; water, pH 7.85, water, thermodynamic from solid, read-out: solubility): ~0.25 mg/mL | elution of the drug on day one and day two, ethanol solution relative to water solution [2, 3]: approximately six times | solubility of the deposited drug, ethanol deposition relative to water deposition [2, 3]: close to six times greater | rate of elution of drug from imbibed polyurethane stent ([2]; listed as bupivacaine free-base): greatly reduced
